# Results taken from the supplement of paper PMC10784567.
# ± gives the standard deviation of the averaged measurements.
# Compound: C=C1C[C@H]2C=Nc3cc(OCCCCCOc4cc5c(cc4OC)C(=O)N4CC(=C)C[C@H]4C=N5)c(OC)cc3C(=O)N2C1 [SG2057]
# Test: absolute IC50 (cell viability, CellTiter-Glo); higher = less potent
# Details: treatment time: 3 days
# Protocol: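 Large cancer cell line panel screens in 384-well plates. Cells were treated for 3 days with a 9-point dose titration of the free PBD dimer SG2057; viability was read with CellTiter-Glo. Absolute IC50 came from a four-parameter Hill fit normalised to the median of vehicle (DMSO) wells. Several independent screens (projects) per cell line are averaged; values in µM, lowest-dose floor about 1.524e-5 µM.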
row,Test System,absolute IC50
1,SBC-7,0.53 nM
2,COLO 680N,0.602 nM
3,NCI-H1437,2.05 ± 2 nM
4,HCC4011,4.15 ± 4.6 nM
5,HCC1347,2.49 nM
6,SJCRH30,0.422 nM
7,SW 626,3.67 nM
8,NCI-H2461,0.545 ± 0.89 nM
9,LN-229,2.6 ± 1.4 nM
10,HCC1428,6.01 ± 0.31 nM
11,G61,0.189 ± 0.015 nM
12,A-498,2.47 nM
13,LNCAP clone FGC,0.365 ± 0.13 nM
14,OAW42,1.38 ± 1.6 nM
15,NCI-H196,2.69 nM
16,DEOC-1,18.9 nM
17,CFPAC-1,0.526 ± 0.55 nM
18,Caco-2,5.17 ± 0.99 nM
19,HCC60 (NCI-H23),0.268 nM
20,TOV-21G,0.261 nM
21,KCI-MOH1,3.23 ± 2 nM
22,Clone M-3 Cloudman S91 melanoma,0.202 nM
23,ONCO-DG-1,1.36 ± 2.2 nM
24,NCI-H1581,0.852 ± 0.72 nM

row,Test System,absolute IC50
1,Detroit 562,1.79 ± 2.6 nM
2,NCI-H1666,0.888 ± 0.43 nM
3,CoCM-1,13.5 nM
4,1624-17147 (Tumor B),1.55 nM
5,OCI-AML5,0.0729 ± 0.11 nM
6,ABC-1,0.365 ± 0.24 nM
7,Panc 08.13,2.7 nM
8,G28T,0.984 ± 1 nM
9,NCI-H1770,7.47 nM
10,COLO 783,3.44 nM
11,SNU-216,1.57 ± 2.9 nM
12,KPL-1,2.48 ± 1.5 nM
13,COV434,0.188 ± 0.19 nM
14,LXFL529,2.72 nM
15,NCI-H1355,2.88 ± 3 nM
16,MMAc,0.868 nM
17,EBC-1,0.876 nM
18,NCI-H446,0.244 nM
19,LCLC-97TM1,1.4 nM
20,CL-11,21.7 nM
21,SW 948,3.39 ± 3.9 nM
22,MDA-MB-453,3.21 ± 2.3 nM
23,huH-1,2.28 nM
24,COR-L26,0.211 ± 0.31 nM

row,Test System,absolute IC50
1,NCI-H28,0.89 nM
2,GR-M,0.107 ± 0.064 nM
3,VMRC-RCW,3.72 nM
4,SNU-638,0.137 ± 0.046 nM
5,KPP-1 (KPP-PDAC) XENOGRAFT,0.168 nM
6,HCC1171,1.01 ± 0.16 nM
7,PA-1,0.0473 ± 0.056 nM
8,SNU-182,1.36 ± 1.5 nM
9,COR-L88,5.79 nM
10,HCC1576,0.476 nM
11,OVCAR433,0.462 ± 0.47 nM
12,OCUM-1,0.529 ± 0.32 nM
13,NCI-N417,0.737 nM
14,TC-71,< 0.0152 nM
15,GP5d,1.93 ± 1.5 nM
16,MES-SA,0.135 ± 0.14 nM
17,MAVER-1,0.0955 ± 0.065 nM
18,NCI-H2347,1.14 ± 2.7 nM
19,SNU-719,3.72 ± 4 nM
20,OUMS-23,1.71 ± 0.89 nM
21,IGR-1,0.75 ± 0.91 nM
22,COLO 320HSR,1.9 nM
23,UACC-257,2.41 nM
24,A-427,0.831 nM

row,Test System,absolute IC50
1,PC-9,5.48 nM
2,NCI-H716,6.9 ± 3.7 nM
3,SK-MEL-1,1.11 ± 0.28 nM
4,LN-18,2.2 ± 1.4 nM
5,C2BBe1,7.31 ± 3.8 nM
6,RKO-E6,1.32 ± 2.1 nM
7,NB-4,0.29 nM
8,OE19,2.23 nM
9,SNU-484,0.327 ± 0.11 nM
10,KELLY,0.12 nM
11,MKN-7,1.67 nM
12,1624-16997 (Tumor C),1.55 nM
13,8505C,0.595 nM
14,TRAMP-C2,0.154 nM
15,ChaGo-K-1,3.31 ± 1.5 nM
16,Toledo,0.279 ± 0.28 nM
17,Renca,10.3 ± 12 nM
18,HEC-50B,0.713 nM
19,KR7414,1.45 nM
20,HCC850,0.178 nM
21,HCC89,4.66 ± 3.1 nM
22,JJN-3,0.816 ± 1.7 nM
23,PL45,0.402 nM
24,ME-180,0.155 nM

row,Test System,absolute IC50
1,HT-55,3.75 ± 2.6 nM
2,NCI-H820,1.48 nM
3,HCC78,0.114 ± 0.099 nM
4,KR7251,0.557 nM
5,VP229,3 ± 3.4 nM
6,RERF-LC-MS,0.212 ± 0.15 nM
7,FOX-NY,0.0773 nM
8,COLO 704,3.36 ± 2.6 nM
9,COLO 679,0.435 ± 0.34 nM
10,KLE,12.1 ± 8.9 nM
11,G96,0.588 nM
12,CaR-1,0.535 ± 0.21 nM
13,AU565,0.835 ± 0.35 nM
14,CX-1,1.82 ± 2 nM
15,TC-1,0.384 nM
16,SK-N-FI,8.79 ± 11 nM
17,PAN 02,1.39 nM
18,HCS-2,0.957 nM
19,HCC2450,5.43 nM
20,COLO 818,3.37 ± 4.1 nM
21,HCC1482,0.173 nM
22,KNS-62,1.4 ± 2.5 nM
23,KPR3070,1.35 nM
24,MCF 10A,3.78 ± 2.7 nM

row,Test System,absolute IC50
1,NCI-H187,0.1 nM
2,HEC-1-B,6.12 nM
3,HCC1054,0.292 nM
4,PMF-ko14,2.86 ± 5.1 nM
5,UM-UC-1,0.557 nM
6,HUP-T3,0.645 ± 0.72 nM
7,NCI-H1395,1.66 nM
8,KNS-81,0.189 nM
9,COV362.4,4.61 ± 1.7 nM
10,HCC2935,5.29 ± 3.4 nM
11,HT-29,2.89 ± 2 nM
12,NCI-H1792,2.24 nM
13,COV318,5.85 ± 6.6 nM
14,HGC-27,0.406 ± 0.086 nM
15,HCC3418,0.0218 nM
16,COLO 858,1.72 ± 1.4 nM
17,SJCRH30 (RC13),0.187 nM
18,PEO1,0.538 ± 0.19 nM
19,NCI-H441,0.535 nM
20,NCI-H2110,0.296 ± 0.18 nM
21,SNU-620,2.3 ± 3.1 nM
